Test results: patent US8088822B2, “Use of fenretinide or bioactive derivatives thereof and pharmaceutical compositions comprising the same” (priority 2008, dated 2012)
Where a SMILES comes first, the peptide text is derived from it. The star is where a group is joined. Cbz = O=C(OCc1ccccc1)*

Legend:
[1] = tested on: CD34+CD38+ AML progenitor cells; test: Apoptosis of AML progenitor cells; assay type: cell-based, human; conditions: 1-7.5 μM, 48 h
Description: (§1) Primitive AML and CML subpopulations (CD34^+ cells) were identified using CD34-PE in combination with CD38-APC, and followed by double-labeling with 7AAD and Annexin V antibodies for apoptosis assessment. The CD34^+ cells were first stained with antibodies against the surface markers CD34-PE and CD38-APC (Beckman Coulter, Fullerton, Calif.) and incubated at room temperature for 15 minutes. Cells were then washed with cold PBS and resuspended in 200 μL annexin V 1×binding buffer (10 mM HEPES/NaOH, pH 7.4, 140 mM NaCl, 2.5 mM CaCl2), 5 μL AnnexinV-FITC (BD Phanningen, San Diego, Calif.) and 7-aminoactinomycin (7-AAD, 0.25 mg/mL) (Molecular Probes, Eugene, Oreg.). Subsequently, the samples were incubated at room temperature for 15 minutes and analyzed by flow cytometry.
(§2) To determine whether 4-oxo-N-(4-hydroxyphenyl)retinamide like fenretinide could preferentially target primitive leukemia cells, CD34^+ cells are isolated from bone marrow specimens of AML patients and subjected to apoptosis assay upon the treatment with 1-7.5 μM 4-oxo-N-(4-hydroxyphenyl)retinamide for 48 h.

HL60 cells [2] = test: MTT cell viability of quiescent and proliferating HL60 cells; assay type: cell-based; conditions: 0-10 μM, 24 and 48 h
Description: The cell viability was determined by 3-(4,5-dimethylthiazol-2-yl)-2,5-diphenyltetrazolium bromide (MTT) assay.
As previous case (Example 1), HL60 cells were chosen as serum deprived quiescent leukemic cell model obtained when incubated in RPMI 1640 without serum for 48 h. Serum-deprived quiescent leukemic cells and proliferating leukemic cells were then cultured in media containing 0.5% FBS, and treated with 0-10 μM 4-oxo-N-(4-hydroxyphenyl)retinamide for 24 and 48 h, respectively. The cell viability was test by MTT assay.

[3] = tested on: CD34+CD38− AML stem cells; test: Apoptosis of AML stem cells; assay type: cell-based, human; conditions: 1-7.5 μM, 48 h
Description: as §1, §2

HL60 cells [4] = test: Mitochondrial transmembrane potential (MTP) assay, Rh123/PI, HL60 cells; assay type: cell-based; conditions: quiescent HL60 cells; 20 μM IDA or 5 μM Ara-C
Description: (§3) HL60 cells were cultured in RPMI 1640 supplemented (i) with or (ii) without 10% fetal bovine serum to obtain proliferating and quiescent leukemia cells respectively. Serum-deprived quiescent leukemic cells and proliferating leukemic cells were then cultured in media containing 0.5% FBS, and treated with 1 μM and 2.5 μM fenretinide, and also with chemotherapeutics as controls, 20 μM idarubicin (IDA) and 5 μM cytarabine (Ara-C).
(§4) To examine the effects of fenretinide on proliferating and quiescent leukemia cells, HL60 cells were chosen as serum deprived quiescent leukemic cell model obtained when incubated in RPMI 1640 without serum for 48 h, with G0/G1 phase cells (being in quiescent state) accounting up to 59.9%. Serum-deprived quiescent leukemic cells and proliferating leukemic cells were then cultured in media containing 0.5% FBS, and treated with 1 μM and 2.5 μM fenretinide, and also with chemotherapeutics as controls, 20 μM idarubicin (IDA) and 5 μM cytarabine (Ara-C). […] Fenretinide induces intracellular production of ROS, lowers mitochondrial transmembrane potential (MTP), and eventually leads to apoptosis in a variety of malignancies. We measured MTP induced by fenretinide in proliferating and quiescent HL60 cells, as examined through rhodamine 123 and propidium iodide staining and followed by flow cytometry analysis. […] We further measured intracellular ROS abundance induced by fenretinide. […] After incubation with 1 μM and 2.5 μM fenretinide for 3 h, the ROS level of proliferating cells increased by 1.77 and 2.6 fold, respectively.

U937 [5] = test: Apoptosis in AML cell line U937; assay type: cell-based; conditions: U937, within 48 hours, alone or combined
Description: (§5) 2×10^5 cultured cells were used for evaluating apoptosis using an ApoAlert Annexin V-FITC Apoptosis Kit (BD Biosciences). Cells were washed once by PBS, resuspended in 200 μl Annexin-V binding buffer, and then stained with Annexin V-FITC 5 μl, PI 10 μl for 15 min at room temperature in the dark. Cells were subsequently analyzed by flow cytometry.
There are two observations that drive us in further exploring alternative therapeutic combinations. As illustrated in Example 6, proteasome inhibitors can potentate fenretinide-induced apoptosis in leukemia. […] The apoptosis rates were quite low when treated alone within 48 hours (nearly 5%), and the number doubled when treated by fenretinide and MG132.

U937 [6] = test: Growth inhibition and combination index in AML cell line U937; assay type: cell-based; conditions: U937, single agent
Description: The combination Index (CI) was used to test the combination effect of fenretinide and Ara-C on growth inhibition in AML cell line U937. The CI was calculated according to the classic isobologram equation: CI=d1/D1+d2/D2. In this equation, D1 and D2 represent the doses of drug 1 and drug 2 alone, required to produce x % effect, and d1 and d2 are the doses of drugs 1 and 2 in combination required to produce the same effect. And CI<1, CI>1 and CI=1 represent the synergism, […], respectively.

HL60 cells [7] = test: Annexin V apoptosis assay in proliferating and serum-deprived quiescent HL60 cells; assay type: cell-based; conditions: 20 μM IDA
Description: as §3, §5, §4

K562 = test: Apoptosis in CML cell line K562; assay type: cell-based; conditions: 4 μM fenretinide, 0.25 μM imatinib, 0.1 μM MG132, alone or combined
Description: as §5

MKN45 = test: Apoptosis in gastric tumor cell line MKN45 (Rh123/PI, FACS); assay type: cell-based; conditions: MKN45, 48 hours; 4 μM fenretinide, 5 μM Tet, alone or co-treatment
Description: Loss of MTP was evaluated through rhodamine 123 (Rh123) and propidium iodide (PI) staining. 2×10^5 cells were washed by PBS and incubated with 1 μg/ml Rh123 at 37° C. for 30 min. After washed by PBS, 10 μl PI was added to cells for 15 min at room temperature in the dark. Fluorescence emission at 530 nm (representing R123 retention as a function of MTP) was measured with flow cytometry.
Fenretinide induces intracellular ROS and ER stress to activate series of molecular events including apoptotic pathway and such anti-apoptotic pathways as NF-κB cascade. NF-κB can mediate the progression of inflammation-related cancer. […] Unlike fenretinide, Tet is the well-known anti-cancer and anti-inflammation drugs via inhibiting the activity of NF-κB. For example, Tet, as the main effective component of Stephenia tetrandra S Moore, has bioactivities in reversing MDR (multidrug resistance), blocking calcium ion channel and so on. […] FIGS. 19A and 19B show synergistic induction of apoptosis by fenretinide and Tet, as evaluated by Rh123/PI double stain using FACS. […] Through annexin-V/PI double staining, synergistic apoptosis profiles of fenretinide/tetrandrine co-treated MKN45 and SGC7901 cells were also observed (see FIGS. 19C and 19D).

CML CD34+ cells = test: Colony forming assay in primary CML CD34+ cells; assay type: cell-based, human; conditions: 0.25 μM imatinib, 4 μM fenretinide or both, 14 days
Description: Fresh bone marrow (BM) cells were obtained from 38 patients with CML and 5 non-leukemic donors, 25 AML, 17 ALL, and 8 normal specimens with informed consent according to the Declaration of Helsinki. Approval was obtained from Institutional Review Board at the School of Medicine in Shanghai Jiao Tong University. BM mononuclear cells were isolated by Ficoll density gradient centrifugation (Shanghai Second Reagent Factory, Shanghai, China). CD34^+ Cell were selected using EasySep® Human CD34 Positive Selection kit (Stem Cell Technologies, Vancouver, BC, Canada) according to the manufacturer's instructions. […] The CD34^+ cells were cultured in a serum-free medium (StemPro 34; Gibco BRL, Gaithersburg, Md.) supplemented with growth factors (PeproTech, London, United Kingdom) (20). The growth factors consisted of GM-CSF (200 pg/mL), G-CSF (1 ng/mL); SCF (200 pg/mL); LIF (50 pg/mL), MIP-1α (200 pg/mL) and IL-6 (1 ng/mL).
A quantity of 1000 CD34^+ cells were plated in semisolid methylcellulose-based media (Methocult H4434: Stem Cell Technologies, Vancouver, BC, Canada). After incubation at 37° C. in a fully humidified atmosphere of 5% CO2 for 14 days, granulocyte macrophage-colony-forming units (CFU-GM), erythroid burst-forming units (BFU-E), granulocyte, erythrocyte and monocyte, megakaryocyte-colony-forming units (CUF-GEMM) were counted. Only clusters with >50 cells were counted as a colony.
We further performed study to examine the effects of fenretinide on colony forming in primary CML cells derived from 38 bone marrow specimens of CML patients (TABLE 1). First, CML CD34^+ Cells were isolated using EasySep® Human CD34 Positive Selection kit (Stem Cell Technologies, Vancouver, BC, Canada). Upon treated with 2 μM and 4 μM fenretinide, colony forming assays were performed respectively on granulocyte macrophage-colony-forming units (CFU-GM), erythroid burst-forming units (BFU-E), granulocyte, erythrocyte and monocyte, megakaryocyte-colony-forming units (CFU-GEMM).

patients with CML = patients with CML treated with imatinib; cited from earlier work
NB4 cells = test: Antagonist assays, apoptosis of NB4 cells; assay type: cell-based; conditions: 100 μM vitamin C pre-treatment 2 hours, then 1 μM fenretinide 24 hours

## CC1=C(/C=C/C(C)=C/C=C/C(C)=C/C(=O)Nc2ccc(O)cc2)C(C)(C)CCC1=O [4-oxo-N-(4-hydroxyphenyl)retinamide]
[1]
  apoptosis of CD34+CD38+ AML progenitor cells: dose-dependent manner
HL60 cells [2]
  sensitivity (cell viability, MTT) of serum-deprived quiescent versus proliferating HL60 cells: more sensitive
[3]
  apoptosis of CD34+CD38− AML stem cells: dose-dependent manner

## Nc1ccn([C@@H]2O[C@H](CO)[C@@H](O)[C@@H]2O)c(=O)n1 [Ara-C, cytosine arabinoside]
HL60 cells [4]
  change in MTP: little change in MTP
U937 [5]
  apoptosis rate: ~5%
U937 [6]
  dose alone required for growth inhibition rate of 65.47%: 0.091 µM

## CC(=O)[C@]1(O)Cc2c(O)c3c(c(O)c2[C@@H](O[C@H]2C[C@H](N)[C@H](O)[C@H](C)O2)C1)C(=O)c1ccccc1C3=O [IDA, idarubicin]
HL60 cells [4]
  change in MTP: little change in MTP
HL60 cells [7]; proliferating HL60 cells
  apoptosis rate: 88.7%
HL60 cells [7]; quiescent HL60 cells
  apoptosis rate: 29.1%

## CC(C)C[C@@H](C=O)NC(=O)[C@H](CC(C)C)NC(=O)[C@H](CC(C)C)NC(=O)OCc1ccccc1 [MG132, N-[(phenyl-methoxy)-carbonyl]-L-leucyl-N-[(1S)-1-formyl-3-methylbutyl]-L-Leucinamide] (Cbz-Leu-Leu-Leu-aldehyde)
U937 [5]
  apoptosis rate: ~5%
K562
  apoptosis rate: 2.51%

## COc1ccc2cc1Oc1ccc(cc1)C[C@H]1c3cc(c(OC)cc3CCN1C)Oc1c(OC)c(OC)cc3c1[C@H](C2)N(C)CC3 [Tet, tetrandrine]
MKN45
  apoptosis: 15.8%

## Cc1ccc(NC(=O)c2ccc(CN3CCN(C)CC3)cc2)cc1Nc1nccc(-c2cccnc2)n1 [imatinib, 4-[(4-methylpiperazin-1-yl)methyl]-N-[4-methyl-3-[(4-(3-pyridinyl)-pyrimidin-2-yl)amino]phenyl]benzamide]
CML CD34+ cells
  GFU-GEMM formed by the more primitive progenitor cells: could be detected
Patients with CML
  complete cytogenetic response (CCR): ~87%
K562
  apoptosis rate: 12.8%

## O=C1O[C@H]([C@@H](O)CO)C([O-])=C1O.[Na+] [vitamin C, ascorbic acid sodium salt]
NB4 cells
  effect on fenretinide-induced apoptosis: completely abrogated
